Residues, ends and D or L forms follow the SMILES beside them. *: point of attachment. Cbz = O=C(OCc1ccccc1)*; CH2F = FC*
Experiments:
[1] = tested on: human colon organoids derived from tumor tissue; test: ROS measurement with DCFDA in organoids; assay type: cell-based; details: 5-FU (20 μM, 20 h)
Description: (§1) Data are mean±SD, n=3. […] Data are mean±SD, n=3.
ATP level in organoid supernatant or necrotic medium was measured using the CellTiter-Glo 2.0 Cell Viability Assay (Promega #G9242) according to the manufacturers instruction. ROS levels were measured using H2DCFDA (ThermoFisher #D339). Briefly, organoids were treated as indicated with 5-FU, stained with H2DCFDA and then analyzed for H2DCFDA positivity using fluorescence microscopy or FACS.

APTAK tumor organoids = test: APTAK tumor organoids: S6 phosphorylation and organoid survival; assay type: cell-based, mice; details: 5-FU
Description: Organoids were cultured in medium−/+doxycycline prior to the experiment. […] Organoids were cultured in medium−/+doxycycline prior to the experiment.
Colon tumor organoids were cultured as previously described (27). AOM/DSS induced colon tumors were harvested by opening the colon longitudinally and dissociated enzymatically for 30-40 min in digestion media containing 1 mg/ml collagenase I (Sigma-Aldrich), 0.5 mg/ml Dispase (Roche), 50 μg/ml DNase (Sigma-Aldrich) in RPMI medium containing 2% FCS. Supernatant was washed and filtered through a 70 μM cell strainer. Cells were then embedded in Matrigel (Corning, #356231) and cultured in Advanced Dulbecco's modified Eagle's medium/F12 (Invitrogen, #12634-028) supplemented with Glutamax (Invitrogen, #35050038), Hepes (Invitrogen, #15630056), Pen/Strep (Invitrogen, #15140122), N2 supplement (Invitrogen, #17502048), B27supplement (Invitrogen, #17504044) and n-Acetylcysteine (Sigma-Aldrich, #A91165). EGF (Invitrogen, #PMG8045), RspoI and noggin were added as niche factor.

[2] = tested on: S6 ribosomal protein phosphorylation (mTOR signaling); test: Immunoblot analysis of survival pathways / S6 phosphorylation in AOM/DSS tumor organoids; assay type: cell-based, mice; details: for ATP induced phosphorylation of S6: ATP (100 μM) in presence of inhibitor, AOM/DSS tumor organoids
Description: Data are mean±SD, n=7. *p<0.05 by two-tailed Student's t-test. c, Immunoblot analysis of Lgr5EGFP-DTR(−) tumor organoids treated with ATP (100 μM), 2MeS ADP (100 μM) and adenosine (100 μM) for 30 min. […] Data are mean±SD, n=4 replicates. […] Data are mean±SD, n=3 replicates. One representative of three experiment performed is shown. n.s. p>0,05, *p<0.05***, p<0.001, ****p<0.0001 by 1-way ANOVA with Bonferroni's multiple comparison test. 1, Immunoblot analysis of doxycycline inducible P2x4 knockdown APTAK colon tumor organoids treated with 5-FU (20 μM). Organoids were cultured in medium−/+doxycycline prior to the experiment. […] Organoids were cultured in medium−/+doxycycline prior to the experiment. […] Data are mean±SD, n=3.
In vitro Lgr5+ cells ablation experiments, organoids were treated with 20 ng/ml DT (Millipore, #322326) in the culture medium. For human LGR5+ cells ablation, we treated LGR5-iCT organoids with 500 nM BB homodimerizer. Other treatments were performed as described in each figure legends.

[3] = tested on: S6 ribosomal protein phosphorylation, DNA damage and apoptosis markers
[4] = tested on: subcutaneous APTAKshP2x4 tumors; test: Subcutaneous APTAKshP2x4 tumors, 5-FU/rapamycin with or without NAC; assay type: in vivo, mice; details: additional application of NAC (0,5% in drinking water)
Description: as §1
Organoids were collected using ice cold Cell Recovery Solution (Corning, #354253) and mechanically dissociated into small clusters. Dissociated organoid cells were resuspended in PBS, admixed with 50% Matrigel (Corning, #356231) in a final volume of 100 μl, and injected subcutaneously in the right flank of NSG mice. Tumor size was monitored with a digital caliper and tumor volumes were calculated according to the formula (length×width×width)/2. At the end of experiments mice were humanely euthanized to collect tumors.
DT (Millipore, #322326) treatment was performed as previously described (3, 4). Briefly, DT was injected intraperitonially at a dose of 50 μg/kg for the time indicated in individual experiments. mTOR inhibitor rapamycin (LC Labs, #-5000) was dissolved in 5% Ethanol, 5% PEG400 and 5% Tween 80 in PBS and injected i.p. at 10 mg/kg once a day for indicated time. 0.5% N-acetylcysteine (Sigma-Aldrich, #A91165) was applied ad libitum in drinking water. 0.5 mg/ml Doxycycline (Sigma #D9891) was applied ad libitum in drinking water containing 3% Sucrose. 5-FU (Sigma #F6627) was dissolved in sterile H2O and injected intraperitoneally for the time indicated in individual experiments at a concentration of 20 mg/kg.

[5] = tested on: subcutaneous AOM/DSSATKN tumors; assay type: in vivo, NSG mice
[6] = tested on: Lgr5EGFP-DTR(+) tumor organoids; test: Tumor organoid survival / cell death upon treatment with or without DT; assay type: cell-based, mice
From the text: Representative images are shown from at least three independent experiments. c, Average tumor size was counted on serial hematoxylin and eosin (H&E) stained sections on day 9 after 4 injections of either DT or vehicle. Data are mean±SD, n≥8/treatment. p>0.05 (n.s., not significant) by two-tailed Student's t-test. d, Immunohistochemical analysis and quantification of Lgr5-EGFP expression in GFP-stained colon tumor from Lgr5EGFP-DTR(+) mice on day 9 treated with DT as indicated in a). Representative images are shown (n≥8/treatment, scale bar=300 μm). […] Representative images are shown from four independent experiments (n=4/treatment, scale bar=200 μm). Data represent mean±SD, n=4/treatment. p>0.05 (n.s., not significant) by two-tailed Student's t-test. f, Flow cytometric analysis of Lgr5-EGFP+tumor cells from Lgr5EGFP-DTR(+) tumor organoids 24 h after DT treatment. Representative results are shown (n≥3). g, AOM/DSS colon tumor organoids from Lgr5EGFP-DTR(−) and Lgr5EGFP-DTR(+) mice were treated with DT (20 ng/ml) for 24 h. Representative images are shown from two independent experiments (scale bar=200 μm). h, Immunoblot analysis of Lgr5EGFP-DTR(+) and Lgr5EGFP-DTR(−) tumor organoids treated with DT for 24 h. […] 1, Control and raptor knockdown Lgr5EGFP-DTR(+) tumor organoids were passaged and counted after 72 h. […]

PC3 and C4-2B4 cells = details: selective P2XR4 antagonists; cited from earlier work
HCT-116 cells = details: combination of SAMC and rapamycin; cited from earlier work
[7] = tested on: S6 phosphorylation in intestinal epithelial cells (IEC); test: S6 phosphorylation in intestinal epithelial cells of wildtype mice; assay type: in vivo; details: azoxymethane (10 mg/kg single injection), untransformed wildtype mice
Description: as §1
Immunostaining was performed as previously described (35). Briefly, tissues were fixed with 4% paraformaldehyde. Six μm OCT frozen tissue sections or 5 μm paraffin-embedded tissue sections were processed for immunostaining using a standard histological protocol. Following primary antibodies were used: EGFP (Abcam, #ab6673), tdTomato (Rockland, #600-401-379), cleaved caspase 3 (Cell Signaling, #9579), Ki67 (Leica Bioststems, #NCL-L-Ki67-MM1), phospho-S6 (Cell Signaling, #2211),P2x4 (Abcam #134559). Sections were then incubated with HRPconjugated antibodies (Dako) and signal was detected with DAB reaction. For immunofluorescence staining after primary antibody incubation, sections were incubated with flourochrome-labelled secondary antibodies (Invitrogen) and sections were mounted with ProLong Gold Antifade Mountant with DAPI (Invitrogen, #P36931). Images were captured on a Zeiss microscope.

[8] = tested on: AOM/DSSATKN tumor organoids; details: for rescue of organoid reseeding capacity under 5-FU/rapamycin: inhibitor of potential proapoptotic DAMPs added to 5-FU (20 μM) plus rapamycin (10 μM), 48 hours, re-seeded 72 h
From the text: Percentage of reseeding capacity compared to vehicle treated organoids is indicated. Data are mean±SD, n=4 replicates. […] Percentage of reseeding capacity compared to vehicle treated organoids is indicated.

[9] = tested on: refractory metastatic colorectal cancer / refractory solid tumors; details: further addition of panitumumab to everolimus + mFOLFOX6; cited from earlier work

For `O=c1[nH]cc(F)c(=O)[nH]1` [5-FU, 5-fluorouracil], which “ROS levels (DCFDA)” value [1] is on record?
Its value is “tumor organoid specific ROS increase”.

And the S6 phosphorylation (APTAK tumor organoids)?
The S6 phosphorylation was “led to mTOR dependent S6 phosphorylation”.

And the “phosphorylation of S6” value ([2]; 5-FU, absence of Lgr5+ cells (Noggin withdrawal))?
Its value is “able to induce phosphorylation of S6”.

What about the S6 phosphorylation ([3]; 5-FU (20 μM, 24 hours), AOM/DSS tumor tissues and tumor organoids) of the same molecule?
The S6 phosphorylation was “induced S6 phosphorylation”.

Which “ATP induced phosphorylation of S6” value [2] does the source give for `Clc1cccc(-c2nnnn2Cc2cccnc2)c1Cl` [A-438079] here?
Its value is “did not decrease ATP dependent S6 phosphorylation”.

Which “phosphorylation of S6-ribosomal protein” value ([2]; Lgr5EGFP-DTR(−) tumor organoids, 100 μM, 30 min) does the source give for `Nc1ncnc2c1ncn2[C@@H]1O[C@H](COP(=O)(O)OP(=O)(O)OP(=O)(O)O)[C@@H](O)[C@H]1O` [ATP, adenosine triphosphate] here?
Its value is “induced phosphorylation of S6-ribosomal protein”.

With `CC(=O)N[C@@H](CS)C(=O)O` [NAC, N-acetylcysteine] as the molecule, how does the “tumor regression in 5-FU/rapamycin treated mice” value [4] read?
The value was “revert tumor regression”.

And the “apoptosis in tumor tissues (cleaved Caspase 3)” value ([5]; NAC (0,5% in drinking water) in DT/rapamycin treated animals)?
The value was “reduced apoptosis in tumor tissues”.

What about the “DNA damage and apoptosis in tumor organoids” value ([3]; NAC (2 mM) in addition to DT and rapamycin, compared to DT/rapamycin alone) of the same molecule?
Its value is “decreased DNA damage and apoptosis”.

Which “ATP induced phosphorylation of S6” value [2] does the source give for `O=C(Nc1ccc(C(=O)Nc2ccc(C(=O)Nc3ccc(S(=O)(=O)O)c4cc(S(=O)(=O)O)cc(S(=O)(=O)O)c34)cc2)cc1)Nc1ccc(C(=O)Nc2ccc(C(=O)Nc3ccc(S(=O)(=O)O)c4cc(S(=O)(=O)O)cc(S(=O)(=O)O)c34)cc2)cc1` [NF279] here?
Its value is “did not decrease ATP dependent S6 phosphorylation”.

Which tumor organoid survival ([6]; MAPK inhibitor (JNK or p38) in the presence or absence of DT) does the source give for `CNC(=O)c1ccc(C)c(-n2c(C)cc(OCc3ccc(F)cc3F)c(Br)c2=O)c1` [PH797804] here?
Its tumor organoid survival is “did not affect tumor organoid survival”.

For `Cc1nc(N=Nc2ccc(S(=O)(=O)O)cc2S(=O)(=O)O)c(COP(=O)(O)O)c(C=O)c1O` [PPADS], which “Lgr5+ cell death induced S6 phosphorylation” value ([2]; non-selective P2 receptor antagonists) is on record?
The value was “blocked Lgr5+ cell death induced S6 phosphorylation”.

Which “growth, mobility and apoptosis of PCa cells” value (PC3 and C4-2B4 cells) does the source give for `Cc1ccc(S(=O)(=O)N2c3ccccc3Oc3ccccc32)cc1` [PSB-12062] here?
The value was “impaired the growth and mobility of PCa cells but not apoptosis”.

Which tumor suppression (HCT-116 cells) does the source give for `C=CCSSC[C@H](N)C(=O)O` [SAMC, S-allylmercapto-cysteine] here?
Its tumor suppression is “enhanced tumor-suppressing ability”.

For `CN=[N+](C)[O-]` [azoxymethane], which “S6 phosphorylation in IEC” value [7] is on record?
The value was “enhanced S6 phosphorylation in IEC”.

For `Nc1nc2c(ncn2[C@@H]2O[C@@H]3COP(=O)(O)O[C@H]4[C@@H](O)[C@H](n5cnc6c(N)ncnc65)O[C@@H]4COP(=O)(O)O[C@@H]2[C@@H]3O)c(=O)[nH]1` [cGAMP], which “phosphorylation of S6-ribosomal protein” value ([2]; exogenous cGAMP) is on record?
The value was “induced phosphorylation of S6-ribosomal protein in a dose dependent manner”.

What does the source list for `NC(=O)c1ncn([C@@H]2O[C@H](CO)[C@@H](O)[C@H]2O)c1O` [mizoribine]?
organoid collapse ([6]; mizoribine in combination with DT-mediated depletion of Lgr5+ cells, ex vivo): profound organoid collapse; S6-ribosomal protein phosphorylation ([5]; mizoribine in combination with DT-mediated depletion of Lgr5+ cells): without affecting S6-ribosomal protein phosphorylation; viable proliferative tumor cells ([5]; mizoribine in combination with DT-mediated depletion of Lgr5+ cells, s.c. tumors): markedly reduced viable proliferative

For `COC(=O)C[C@H](NC(=O)[C@H](C)NC(=O)[C@@H](NC(=O)OCc1ccccc1)C(C)C)C(=O)CF` [zVAD, carbobenzoxy-valyl-alanyl-aspartyl-[O-methyl]-fluoromethyl ketone] (Cbz-Val-Ala-Asp(OMe)-CH2F), which “organoid survival under combined 5-FU/rapamycin treatment” value ([8]; apoptosis inhibitor zVAD (50 μM) added) is on record?
Its value is “rescued the negative effect of combined 5-FU/rapamycin treatment on organoid survival”.

With Anakinra: IL-1 signaling inhibitor as the molecule, how does the “rescue of organoid reseeding capacity under 5-FU/rapamycin” value [8] read?
Its value is “only inhibition of ROS signaling by NAC was able to rescue”.

Which “S6 phosphorylation induced by DT treatment or necrotic supernatant” value ([2]; Apyrase hydrolyzing released ATP) does the source give for Apyrase here?
Its value is “reduce the levels of S6 phosphorylation”.

With Enbrel as the molecule, how does the “rescue of organoid reseeding capacity under 5-FU/rapamycin” value [8] read?
Its value is “only inhibition of ROS signaling by NAC was able to rescue”.

For “panitumumab: added to everolimus + mFOLFOX6 in phase I trial”, which toxicity [9] is on record?
Its toxicity is “unacceptable level of toxicity”.
